Measurements from patent US8377884B2, “Variants of C-type natriuretic peptides” (Biomarin Pharmaceutical Inc., priority 2007, dated 2013).
Where two headings read alike, the source gives them in different places. Bridge positions count the residues as written; N and C are the ends. Peptide text beside a SMILES is read from it. * marks the point of attachment. PEG12 = NCCOCCOCCOCCOCCOCCOCCOCCOCCOCCOCCOCCOCCC(=O)O; Biotin = O=C1N[C@H]2[C@H](CS[C@H]2CCCCC(=O)*)N1; Heptanoyl = CCCCCCC(=O)*

Tests used:
[1] = target: T1, NPR-B (Mus musculus, UniProt Q6VVW5); assay: Stimulation of cGMP production in NIH3T3 cells; assay type: cell-based, Murine; conditions: for cGMP response relative to 1 uM CNP22 (%) at 0.01 µM: read-out: cGMP Response rel. to 1 uM CNP22, 10 nM; for cGMP response relative to 1 uM CNP22 (%) at 1 µM: read-out: cGMP Response rel. to 1 uM CNP22, 1 uM
T1 construct: Murine NIH3T3 cells express endogenously the CNP signaling receptor, NPR-B; endogenous in cells; host or cells: NIH3T3 (murine fibroblasts)
T1 sequence (Q6VVW5 17-1047): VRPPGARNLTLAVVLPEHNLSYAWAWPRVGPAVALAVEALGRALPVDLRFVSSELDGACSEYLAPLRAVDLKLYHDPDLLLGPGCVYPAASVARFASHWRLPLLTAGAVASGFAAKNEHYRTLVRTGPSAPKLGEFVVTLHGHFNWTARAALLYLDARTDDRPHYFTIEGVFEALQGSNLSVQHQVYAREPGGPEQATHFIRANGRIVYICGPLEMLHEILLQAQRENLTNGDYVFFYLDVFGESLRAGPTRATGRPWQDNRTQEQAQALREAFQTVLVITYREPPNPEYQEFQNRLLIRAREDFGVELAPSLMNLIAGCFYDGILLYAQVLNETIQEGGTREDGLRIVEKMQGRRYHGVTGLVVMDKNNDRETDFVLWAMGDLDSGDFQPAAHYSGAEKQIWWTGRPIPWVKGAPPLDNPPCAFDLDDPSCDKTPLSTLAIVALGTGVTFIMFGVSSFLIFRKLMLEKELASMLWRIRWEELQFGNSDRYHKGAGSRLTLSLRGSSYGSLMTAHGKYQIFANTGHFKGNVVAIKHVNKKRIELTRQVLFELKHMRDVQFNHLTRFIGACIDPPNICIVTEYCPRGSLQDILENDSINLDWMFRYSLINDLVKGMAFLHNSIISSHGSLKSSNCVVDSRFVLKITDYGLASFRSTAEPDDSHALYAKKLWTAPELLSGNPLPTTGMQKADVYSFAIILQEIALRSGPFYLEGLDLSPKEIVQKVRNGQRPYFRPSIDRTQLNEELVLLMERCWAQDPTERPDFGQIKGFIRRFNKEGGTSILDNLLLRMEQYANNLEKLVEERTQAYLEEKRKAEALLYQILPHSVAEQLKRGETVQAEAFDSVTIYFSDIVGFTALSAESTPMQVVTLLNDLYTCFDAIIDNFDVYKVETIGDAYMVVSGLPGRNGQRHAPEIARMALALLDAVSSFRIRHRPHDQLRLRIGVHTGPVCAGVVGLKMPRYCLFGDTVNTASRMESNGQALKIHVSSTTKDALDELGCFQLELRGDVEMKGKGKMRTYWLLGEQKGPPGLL

[2] = target: neutral endopeptidase (NEP) (Homo sapiens, UniProt P08473); assay: In vitro neutral endopeptidase (NEP) cleavage assay; conditions: human, pH 7
Protocol: To determine the effects of amino acid substitutions, amino acid extensions, backbone modifications, side chain modifications and PEGylation on the susceptibility of CNP variants to neutral endopeptidase (NEP) cleavage, peptide cleavage assays were carried out using an in vitro assay that monitored disappearance of the non-cleaved CNP variant.
Recombinant human NEP (1 ug/mL final concentration) was added to 100 uM CNP variant diluted in 0.1 M Tris, pH 7. The reaction mixture was incubated at 37° C. for various periods of time, and the reaction was quenched with EDTA (10 mM final) followed by heat denaturation. The reaction mixture was reduced and then the reaction products were analyzed using HPLC and mass spectroscopy. The half-life of the CNP variant was calculated based on the disappearance of intact CNP variant over time.

[3] = NIH3T3 cells, 10 nM natriuretic peptide, normalized to cell number and cGMP production with 1 uM wtCNP22
[4] = NIH3T3 cells, 1 uM natriuretic peptide, normalized to cell number and cGMP production with 1 uM wtCNP22
[5] = recombinant human neutral endopeptidase (NEP)

neutral endopeptidase (NEP), sequence (P08473 whole entry): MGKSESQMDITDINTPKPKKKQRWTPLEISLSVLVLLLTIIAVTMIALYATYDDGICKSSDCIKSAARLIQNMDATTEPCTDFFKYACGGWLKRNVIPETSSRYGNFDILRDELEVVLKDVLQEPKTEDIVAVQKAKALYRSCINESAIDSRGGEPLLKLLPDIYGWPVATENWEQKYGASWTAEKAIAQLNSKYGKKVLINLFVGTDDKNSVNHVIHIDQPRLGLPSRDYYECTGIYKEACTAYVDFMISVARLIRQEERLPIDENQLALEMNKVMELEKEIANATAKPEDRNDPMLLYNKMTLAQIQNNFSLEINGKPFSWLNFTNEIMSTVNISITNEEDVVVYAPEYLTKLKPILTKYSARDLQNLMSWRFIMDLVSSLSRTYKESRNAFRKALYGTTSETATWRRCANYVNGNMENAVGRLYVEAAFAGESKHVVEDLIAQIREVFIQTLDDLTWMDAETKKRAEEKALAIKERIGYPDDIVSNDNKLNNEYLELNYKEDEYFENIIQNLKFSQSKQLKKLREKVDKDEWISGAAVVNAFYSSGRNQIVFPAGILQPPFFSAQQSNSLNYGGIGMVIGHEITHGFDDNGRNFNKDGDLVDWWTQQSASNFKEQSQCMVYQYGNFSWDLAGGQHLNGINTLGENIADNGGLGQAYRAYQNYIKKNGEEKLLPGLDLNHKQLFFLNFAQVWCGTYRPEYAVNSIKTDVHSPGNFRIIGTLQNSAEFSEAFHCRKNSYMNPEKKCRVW

Compound	cGMP response relative to 1 uM CNP22 (%) at 0.01 µM ([1]; NIH3T3, […])	cGMP response relative to 1 uM CNP22 (%) at 1 µM ([1]; NIH3T3, […])	half-life at 100 uM [2]	cGMP response relative to 1 uM CNP22 (%) at 0.01 µM [1, 3]	cGMP response relative to 1 uM CNP22 (%) at 1 µM [1, 4]	half-life at 100 uM [2, 5]
CC[C@H](C)[C@@H]1NC(=O)[C@H](CCCNC(=N)N)NC(=O)[C@H](CC(=O)O)NC(=O)[C@H](CC(C)C)NC(=O)[C@H](CCCCN)NC(=O)[C@H](CC(C)C)NC(=O)CNC(=O)[C@H](Cc2ccccc2)NC(=O)[C@@H](NC(=O)CNC(=O)CNC(=O)[C@H](CO)NC(=O)[C@H](CC(C)C)NC(=O)CNC(=O)CCOCCOCCOCCOCCOCCOCCOCCOCCOCCOCCOCCOCCNC(=O)CCCC[C@@H]2SC[C@@H]3NC(=O)N[C@@H]32)CSSC[C@@H](C(=O)O)NC(=O)CNC(=O)[C@H](CC(C)C)NC(=O)CNC(=O)[C@H](CO)NC(=O)[C@H](CCSC)NC(=O)[C@H](CO)NC(=O)CNC1=O [(PEO12)-Biotin-CNP22, K4G] ({Biotin-PEG12}-GLSGGCFGLKLDRIGSMSGLGC-OH; disulfide 6-22; C-terminus assumed)	10%	27%	1.67 h	–	–	–
CC[C@H](C)[C@@H]1NC(=O)[C@H](CCCNC(=N)N)NC(=O)[C@H](CC(=O)O)NC(=O)[C@H](CC(C)C)NC(=O)[C@H](CCCCN)NC(=O)[C@H](CC(C)C)NC(=O)CNC(=O)[C@H](Cc2ccccc2)NC(=O)[C@@H](NC(=O)CNC(=O)[C@H](CCCCN)NC(=O)[C@H](CO)NC(=O)[C@H](CC(C)C)NC(=O)CNC(=O)CCOCCOCCOCCOCCOCCOCCOCCOCCOCCOCCOCCOCCNC(=O)CCCC[C@@H]2SC[C@@H]3NC(=O)N[C@@H]32)CSSC[C@@H](C(=O)O)NC(=O)CNC(=O)[C@H](CC(C)C)NC(=O)CNC(=O)[C@H](CO)NC(=O)[C@H](CCSC)NC(=O)[C@H](CO)NC(=O)CNC1=O [(PEO12)-Biotin-CNP22]	19%	81%	2.33 h	–	–	–
CC[C@H](C)[C@@H]1NC(=O)[C@H](CCCNC(=N)N)NC(=O)[C@H](CC(=O)O)NC(=O)[C@H](CC(C)C)NC(=O)[C@H](CCCCN)NC(=O)[C@H](CC(C)C)NC(=O)[C@H]([C@@H](C)O)NC(=O)[C@H](Cc2ccccc2)NC(=O)[C@@H](NC(=O)CNC(=O)[C@H](CCCNC(=N)N)NC(=O)[C@H](CO)NC(=O)[C@H](CC(C)C)NC(=O)CN)CSSC[C@@H](C(=O)O)NC(=O)CNC(=O)[C@H](CC(C)C)NC(=O)CNC(=O)[C@H](CO)NC(=O)[C@H](CCSC)NC(=O)[C@H](CO)NC(=O)CNC1=O [AC] (H-GLSRGCFTLKLDRIGSMSGLGC-OH; disulfide 6-22 (inferred); N-terminus and C-terminus assumed)	–	–	–	11 ± 2%	66 ± 16%	1.33 h
CC[C@H](C)[C@@H]1NC(=O)[C@H](CCCNC(=N)N)NC(=O)[C@H](CC(=O)O)NC(=O)[C@H](CC(C)C)NC(=O)[C@H](CCCCN)NC(=O)[C@H](CC(C)C)NC(=O)CNC(=O)[C@H](Cc2ccccc2)NC(=O)[C@@H](NC(=O)CNC(=O)[C@H](CCCNC(=N)N)NC(=O)[C@H](CO)NC(=O)[C@H](CC(C)C)NC(=O)CN)CSSC[C@@H](C(=O)O)NC(=O)CNC(=O)[C@H](CC(C)C)NC(=O)CNC(=O)[C@H](CO)NC(=O)[C@H](CCSC)NC(=O)[C@H](CO)NC(=O)CNC1=O [AH] (H-GLSRGCFGLKLDRIGSMSGLGC-OH; disulfide 6-22 (inferred); N-terminus and C-terminus assumed)	–	–	–	59%	121%	1.33 h
CC[C@H](C)[C@@H]1NC(=O)[C@H](CCCNC(=N)N)NC(=O)[C@H](CC(=O)O)NC(=O)[C@H](CC(C)C)NC(=O)[C@H](CCCCN)NC(=O)[C@H](CC(C)C)NC(=O)CNC(=O)[C@H](Cc2ccccc2)NC(=O)[C@@H](NC(=O)CNC(=O)[C@H](CCC(=O)O)NC(=O)[C@H](CO)NC(=O)[C@H](CC(C)C)NC(=O)[C@@H](N)CCC(=O)O)CSSC[C@@H](C(=O)O)NC(=O)CNC(=O)[C@H](CC(C)C)NC(=O)CNC(=O)[C@H](CO)NC(=O)[C@H](CCSC)NC(=O)[C@H](CO)NC(=O)CNC1=O [AT] (H-ELSEGCFGLKLDRIGSMSGLGC-OH; disulfide 6-22 (inferred); N-terminus and C-terminus assumed)	–	–	–	11%	54%	1 h
CC[C@H](C)[C@@H]1NC(=O)[C@H](CCCNC(=N)N)NC(=O)[C@H](CC(=O)O)NC(=O)[C@H](CC(C)C)NC(=O)[C@H](CCCCN)NC(=O)[C@H](CC(C)C)NC(=O)CNC(=O)[C@H](Cc2ccccc2)NC(=O)[C@@H](NC(=O)CNC(=O)[C@H](CCCNC(=N)N)NC(=O)[C@H](CO)NC(=O)[C@H](CC(C)C)NC(=O)CNC(=O)[C@H](CCCNC(=N)N)NC(=O)[C@H](CCCNC(=N)N)NC(=O)[C@H](CC(N)=O)NC(=O)[C@H](C)NC(=O)CN)CSSC[C@@H](C(=O)O)NC(=O)CNC(=O)[C@H](CC(C)C)NC(=O)CNC(=O)[C@H](CO)NC(=O)[C@H](CCSC)NC(=O)[C@H](CO)NC(=O)CNC1=O [AY] (H-GANRRGLSRGCFGLKLDRIGSMSGLGC-OH; disulfide 11-27 (inferred); N-terminus and C-terminus assumed)	–	–	1.08 h	59 ± 9%	105 ± 20%	–
CC[C@H](C)[C@@H]1NC(=O)[C@H](CCCNC(=N)N)NC(=O)[C@H](CC(=O)O)NC(=O)[C@H](CC(C)C)NC(=O)[C@H](CCCCN)NC(=O)[C@H](CC(C)C)NC(=O)CNC(=O)[C@H](Cc2ccccc2)NC(=O)[C@@H](NC(=O)CNC(=O)[C@H](CCCNC(=N)N)NC(=O)[C@H](CO)NC(=O)[C@H](CC(C)C)NC(=O)CNC(=O)[C@@H](N)CCCNC(=N)N)CSSC[C@@H](C(=O)O)NC(=O)CNC(=O)[C@H](CC(C)C)NC(=O)CNC(=O)[C@H](CO)NC(=O)[C@H](CCSC)NC(=O)[C@H](CO)NC(=O)CNC1=O [AZ] (H-RGLSRGCFGLKLDRIGSMSGLGC-OH; disulfide 7-23 (inferred); N-terminus and C-terminus assumed)	–	–	≥ 2.67 h	54 ± 11%	106 ± 15%	–
CC[C@H](C)[C@@H]1NC(=O)[C@H](CCCNC(=N)N)NC(=O)[C@H](CC(=O)O)NC(=O)[C@H](CC(C)C)NC(=O)[C@H](CCCCN)NC(=O)[C@H](CC(C)C)NC(=O)CNC(=O)[C@H](Cc2ccccc2)NC(=O)[C@@H](NC(=O)CNC(=O)[C@H](CCCNC(=N)N)NC(=O)[C@H](CO)NC(=O)[C@H](CC(C)C)NC(=O)CNC(=O)[C@H](CCCNC(=N)N)NC(=O)[C@@H](N)CCC(=O)O)CSSC[C@@H](C(=O)O)NC(=O)CNC(=O)[C@H](CC(C)C)NC(=O)CNC(=O)[C@H](CO)NC(=O)[C@H](CCSC)NC(=O)[C@H](CO)NC(=O)CNC1=O [BA] (H-ERGLSRGCFGLKLDRIGSMSGLGC-OH; disulfide 8-24 (inferred); N-terminus and C-terminus assumed)	–	–	1.5 h	38 ± 10%	113 ± 10%	–
CCCCCCC(=O)N[C@@H](CCC(=O)O)C(=O)N[C@@H](CC(C)C)C(=O)N[C@@H](CO)C(=O)N[C@@H](CCCCN)C(=O)NCC(=O)N[C@H]1CSSC[C@@H](C(=O)O)NC(=O)CNC(=O)[C@H](CC(C)C)NC(=O)CNC(=O)[C@H](CO)NC(=O)[C@H](CCSC)NC(=O)[C@H](CO)NC(=O)CNC(=O)[C@H]([C@@H](C)CC)NC(=O)[C@H](CCCNC(=N)N)NC(=O)[C@H](CC(=O)O)NC(=O)[C@H](CC(C)C)NC(=O)[C@H](CCCCN)NC(=O)[C@H](CC(C)C)NC(=O)CNC(=O)[C@H](Cc2ccccc2)NC1=O [BB] (Heptanoyl-ELSKGCFGLKLDRIGSMSGLGC-OH; disulfide 6-22 (inferred); C-terminus assumed)	32 ± 4%	84 ± 19%	0.75 to 1.08 h	–	–	–
